Reference: US12194039B2, “Methods of treating heart failure by administering omecamtiv mecarbil” (Cytokinetics, Inc., priority 2020, dated 2025)
Read-outs that look alike come from different tables or passages of the source.

Legend:
[1] = test system: patients with heart failure; settings: result in words; cited from earlier work
[2] = sensitive CYP3A substrate midazolam 5 mg SD, with OM 25 mg BID
[3] = sensitive P-gp substrate digoxin 0.5 mg SD, with OM 50 mg SD
[4] = sensitive BCRP substrate rosuvastatin 10 mg SD, with OM 50 mg SD
[5] = sensitive MATE 1/2K substrate metformin 850 mg SD, with OM 25 mg BID

With `Cc1ncc2n1-c1ccc(Cl)cc1C(c1ccccc1F)=NC2` [Midazolam] the “% Change of co-administered drug AUC (↓ = decrease)” value [2] was “↓18%”, the “% Change of co-administered drug Cmax (↓ = decrease)” value [2] was “↓10%” and the “Mean Ratio of co-administered drug AUC (90% CI)” value [2] was 0.82 (0.71-0.94). The “Mean Ratio of co-administered drug Cmax (90% CI)” value [2] was 0.90 (0.75-1.08).
With `C[C@H]1O[C@@H](O[C@H]2[C@@H](O)C[C@H](O[C@H]3[C@@H](O)C[C@H](O[C@H]4CC[C@@]5(C)[C@H](CC[C@@H]6[C@@H]5C[C@@H](O)[C@]5(C)[C@@H](C7=CC(=O)OC7)CC[C@]65O)C4)O[C@@H]3C)O[C@@H]2C)C[C@H](O)[C@@H]1O` [Digoxin] the “% Change of co-administered drug Cmax (↑ = increase)” value [3] was “↑8%”, the “Mean Ratio of co-administered drug AUC (90% CI)” value [3] was 1.06 (0.99-1.14) and the “Mean Ratio of co-administered drug Cmax (90% CI)” value [3] was 1.08 (0.92-1.26).
In the case of `COC(=O)Nc1c(N)nc(-c2nn(Cc3ccccc3F)c3ncc(F)cc23)nc1N` [vericiguat], the “Treatment efficacy at higher NT-proBNP concentrations” value [1] is listed as “declined”.
For `CC(C)c1nc(N(C)S(C)(=O)=O)nc(-c2ccc(F)cc2)c1/C=C/[C@@H](O)C[C@@H](O)CC(=O)O` [Rosuvastatin], the “% Change of co-administered drug AUC (↑ = increase)” value [4] was “↑27%”, the “% Change of co-administered drug Cmax (↑ = increase)” value [4] was “↑45%” and the “Mean Ratio of co-administered drug AUC (90% CI)” value [4] was 1.27 (1.14-1.42). The “Mean Ratio of co-administered drug Cmax (90% CI)” value [4] was 1.54 (1.33-1.79).
In the case of `CN(C)C(=N)N=C(N)N` [Metformin], the “Mean Ratio of co-administered drug AUC (90% CI)” value [5] is reported as 0.99 (0.92-1.05) and the “Mean Ratio of co-administered drug Cmax (90% CI)” value [5] is reported as 1.10 (1.01-1.21).
